Source: article PMC6711126, “Novel 2-phenoxypyrido[3,2-b]pyrazin-3(4H)-one derivatives as potent and selective aldose reductase inhibitors with antioxidant activity” (Journal of Enzyme Inhibition and Medicinal Chemistry, 2019)
Values joined by “and” are separate entries in the source; they are usually repeats but may differ in a detail not shown here. Equal entries are not always repeated.

Key:
[1] = biological target: T1, AKR1B1 isolated from rat lenses (Rattus norvegicus, UniProt P07943); test: AKR1B1 (aldose reductase) inhibition, NADPH oxidation with D,L-glyceraldehyde as substrate; type: biochemical; conditions: rat lens enzyme, pH 6.2, 30 °C
T1 construct: AKR1B1 isolated from rat lenses; from tissue; host or cells: rat lenses
Protocol: (§1) Besides, the inhibitory activity of aldehyde reductase (AKR1A1) isolated from rat kidneys was also investigated to evaluate the selectivity for AKR1B1. The enzyme AKR1A1 is closely related to AKR1B1, and plays an important role in physiological detoxification. […] Additionally, the antioxidant activity was assessed by using the model reaction with the stable free radical of 2,2-diphenyl-1-picrylhydrazyl (DPPH) according to the modified method, which was first employed by Blois[23].
The AKR1B1 inhibition activity was performed in a reaction mixture containing 0.25 mL NADPH (0.10 mM), 0.25 mL sodium phosphate buffer (pH = 6.2, 0.1 M), 0.1 mL enzyme extract, 0.15 mL deionized water, and 0.25 mL D,L-glyceraldehyde (10 mM) as substrate in a final volume of 1 mL. Before adding to D,L-glyceraldehyde, the reaction mixture was incubated at 30 °C for 10 min, and then the substrate was added to start the reaction, which was monitored for 4 min.
(§2) The inhibitory activity of the newly synthesized compounds against AKR1B1 and AKR1A1 was assayed by adding 5 μL of the inhibitor solution to the reaction mixture described above. All compounds were dissolved in dimethyl sulfoxide (DMSO) and diluted with deionized H2O. To correct for the nonenzymatic oxidation of NADPH, the rate of NADPH oxidation in the presence of all the reaction mixture components except the substrate was subtracted from each experimental rate. The inhibitory effect of the synthetic compounds was routinely estimated at 10^-4 M (the concentration is referenced to that of the compound in the reaction mixture).

[2] = biological target: T2, AKR1A1 isolated from rat kidneys (Rattus norvegicus, UniProt P51635); test: AKR1A1 (aldehyde reductase) inhibition, NADPH oxidation with sodium D-glucuronate as substrate; type: biochemical; conditions: rat kidney enzyme, pH 7.2, 37 °C
T2 construct: aldehyde reductase (AKR1A1) isolated from rat kidneys; from tissue; host or cells: rat kidneys
T2 sequence (P51635 1-325): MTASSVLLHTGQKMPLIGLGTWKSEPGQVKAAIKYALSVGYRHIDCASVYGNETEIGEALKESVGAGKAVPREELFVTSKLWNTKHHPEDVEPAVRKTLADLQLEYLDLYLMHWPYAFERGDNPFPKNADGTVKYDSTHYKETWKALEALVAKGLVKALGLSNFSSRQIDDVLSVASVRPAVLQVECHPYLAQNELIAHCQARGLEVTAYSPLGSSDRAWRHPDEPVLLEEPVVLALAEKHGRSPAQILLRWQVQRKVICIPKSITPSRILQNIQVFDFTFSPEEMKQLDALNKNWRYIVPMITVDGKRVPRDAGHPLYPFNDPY
Protocol: as §1, with “All new synthetic compounds 4a–o were tested for their potential inhibitory activity of AKR1B1 isolated from rat lenses. Besides,” for “Besides,”
The AKR1A1 inhibition activity was performed in a reaction mixture containing 0.25 mL NADPH (0.12 mM), 0.1 mL enzyme extract, 0.25 mL sodium phosphate buffer (pH = 7.2, 0.1 M), 0.15 mL deionized water, and 0.25 mL sodium D-glucuronate (20 mM) as substrate in a final volume of 1 mL. Before adding to sodium D-glucuronate, the reaction mixture was incubated at 37 °C for 10 min, and then the substrate was added to start the reaction, which was monitored for 4 min.
as §2

[3] = DPPH radical scavenging assay; conditions: methanol, 517 nm; for DPPH/sca% 10 μM: compound 10 μM; for DPPH/sca% 50 μM: compound 50 μM; for DPPH/sca% 100 μM: compound 100 μM
Protocol: as §1, with “All new synthetic compounds 4a–o were tested for their potential inhibitory activity of AKR1B1 isolated from rat lenses. Besides,” for “Besides,”
The antioxidant activity of all synthesised compounds was determined with the DPPH model reaction and […] (Trolox) was employed as a positive control (Table 2).
To investigate the antiradical activity of target compounds in a homogeneous system, a method based on the scavenging of the stable free radical DPPH was employed. A 100 μL of methanolic solution of various compounds with different concentrations was added to 1 mL DPPH methanolic solution (2.5 × 10^-5 g/mL) and 1.9 ml methanol solution to give final concentrations of 0.1, 0.05, 0.01 mM for the tested compounds, respectively. After vortexing thoroughly and leaving for 30 min at room temperature, the optical density was measured at λ 517 nm using the Shimadzu UV-1800 spectrophotometer. The tested compounds and the reference (Trolox) were dissolved in methanol, and after 240 min (steady state), the percentage of DPPH radical scavenging was determined by the equation as shown below. The experiments were performed in triplicate.

IC50 [1] [µM]	melting point [°C]	IC50 [2] [µM]	Compound	DPPH/sca% 10 μM [3]	DPPH/sca% 50 μM [3]	DPPH/sca% 100 μM [3]
0.056 ± 0.005	233 to 235	19.8 ± 1.41	O=C(O)Cn1c(=O)c(Oc2cc(O)cc(O)c2)nc2cc(Br)cnc21 [4l, 2-(7-bromo-2-(3,5-dihydroxyphenoxy)-3-oxopyrido[3,2-b]pyrazin-4(3H)-yl)acetic acid]	46.8% and 46.8 ± 1.5%	80.6% and 80.6 ± 2.0%	95.3% and 95.3 ± 1.2%
2.68 ± 0.199	234 to 242	19.8 ± 1.32	COc1ccc(Oc2nc3cccnc3n(CC(=O)O)c2=O)cc1 [4b, 2-(2-(4-methoxyphenoxy)-3-oxopyrido[3,2-b]pyrazin-4(3H)-yl)acetic acid]			18.9 ± 0.8%
			Cc1c(C)c2c(c(C)c1O)CCC(C)(C(=O)O)O2 (centres unmarked) [Trolox, […], reference compound]	85.9 ± 0.6%	89.8 ± 1.0%	96.7 ± 0.8%
2.5 ± 0.203	232 to 236	19.3 ± 1.81	COc1ccc(Oc2nc3cccnc3n(CC(=O)O)c2=O)cc1O [4g, 2-(2-(3-hydroxy-4-methoxyphenoxy)-3-oxopyrido[3,2-b]pyrazin-4(3H)-yl)acetic acid]		21.5 ± 1.2%	54.8 ± 1.6%
0.023 ± 0.003	232 to 236	18.4 ± 1.34	O=C(O)Cn1c(=O)c(Oc2cc(O)cc(O)c2)nc2cc(Cl)cnc21 [4k, 2-(7-chloro-2-(3,5-dihydroxyphenoxy)-3-oxopyrido[3,2-b]pyrazin-4(3H)-yl)acetic acid]	49.1 ± 2.4%	76.4 ± 0.9%	94.8 ± 1.1%
5.68 ± 0.608	241 to 251	17.6 ± 1.02	COc1ccc(Oc2nc3cccnc3n(CC(=O)O)c2=O)cc1OC [4c, 2-(2-(3,4-dimethoxyphenoxy)-3-oxopyrido[3,2-b]pyrazin-4(3H)-yl)acetic acid]			21.2 ± 1.5%
0.305 ± 0.022	231 to 236	16.9 ± 0.692	O=C(O)Cn1c(=O)c(Oc2ccc(O)c(O)c2)nc2cccnc21 [4h, 2-(2-(3,4-dihydroxyphenoxy)-3-oxopyrido[3,2-b]pyrazin-4(3H)-yl)acetic acid]		44.1 ± 2.3%	74.6 ± 1.4%
2.85 ± 0.031	229 to 232	15.1 ± 0.924	COc1cc(O)cc(Oc2nc3cccnc3n(CC(=O)O)c2=O)c1 [4i, 2-(2-(3-hydroxy-5-methoxyphenoxy)-3-oxopyrido[3,2-b]pyrazin-4(3H)-yl)acetic acid]		45.2 ± 1.8%	78.4 ± 0.7%
8.57 ± 0.523	239 to 244	26.9 ± 1.45	O=C(O)Cn1c(=O)c(Oc2ccccc2)nc2cccnc21 [4a, 2-(3-oxo-2-phenoxypyrido[3,2-b]pyrazin-4(3H)-yl)acetic acid]			6.9 ± 1.2%
4.53 ± 0.258	237 to 244	31.6 ± 3.06	COc1cc(Oc2nc3cccnc3n(CC(=O)O)c2=O)cc(O)c1OC [4m, 2-(2-(3-hydroxy-4,5-dimethoxyphenoxy)-3-oxopyrido[3,2-b]pyrazin-4(3H)-yl)acetic acid]		35.9 ± 1.1%	56.9 ± 1.8%
2.36 ± 0.184	235 to 241	25.8 ± 1.65	COc1c(O)cc(Oc2nc3cccnc3n(CC(=O)O)c2=O)cc1O [4n, 2-(2-(3,5-dihydroxy-4-methoxyphenoxy)-3-oxopyrido[3,2-b]pyrazin-4(3H)-yl)acetic acid]		40.8 ± 1.6%	65.7 ± 0.9%
0.087 ± 0.007	231 to 237	20.8 ± 1.5	O=C(O)Cn1c(=O)c(Oc2cc(O)cc(O)c2)nc2cccnc21 [4j, 2-(2-(3,5-dihydroxyphenoxy)-3-oxopyrido[3,2-b]pyrazin-4(3H)-yl)acetic acid]	45.3 ± 1.9%	77.2 ± 1.5%	95.0 ± 0.9%
0.121 ± 0.01	231 to 239	15.9 ± 0.781	O=C(O)Cn1c(=O)c(Oc2ccc(O)cc2)nc2cccnc21 [4f, 2-(2-(4-hydroxyphenoxy)-3-oxopyrido[3,2-b]pyrazin-4(3H)-yl)acetic acid]			37.7 ± 1.0%
		55.7 ± 3.29	CC(/C=C1\SC(=S)N(CC(=O)O)C1=O)=C\c1ccccc1 [Epalrestat, reference compound]			
0.859 ± 0.058	241 to 246	21.7 ± 1.47	O=C(O)Cn1c(=O)c(Oc2cc(O)c(O)c(O)c2)nc2cccnc21 [4o, 2-(3-oxo-2-(3,4,5-trihydroxyphenoxy)pyrido[3,2-b]pyrazin-4(3H)-yl)acetic acid]	23.4 ± 2.0%	65.2 ± 1.9%	88.5 ± 1.4%
7.57 ± 0.431	235 to 243	20.9 ± 1.21	COc1cc(Oc2nc3cccnc3n(CC(=O)O)c2=O)cc(OC)c1OC [4e, 2-(3-oxo-2-(3,4,5-trimethoxyphenoxy)pyrido[3,2-b]pyrazin-4(3H)-yl)acetic acid]			17.8 ± 0.9%
4.3 ± 0.288	241 to 247	21.5 ± 1.81	COc1cc(OC)cc(Oc2nc3cccnc3n(CC(=O)O)c2=O)c1 [4d, 2-(2-(3,5-dimethoxyphenoxy)-3-oxopyrido[3,2-b]pyrazin-4(3H)-yl)acetic acid]			25.9 ± 1.3%
